Tests used:
individuals with DMD = conditions: individuals with DMD; cited from earlier work
mdx mouse = conditions: cited from earlier work
[1] = test system: mRNA expression in peripheral blood of individuals with DMD; assay: Whole-blood gene expression microarray: DMD administered prednisone or deflazacort vs DMD not administered steroid; format: in vivo, human
Protocol: Fifteen ml of blood was collected from each individual into 6 PAXgene® Vacutainer® tubes (PreAnalytiX, Germany) by antecubital fossa venipuncture. PAXgene® tubes contain a proprietary reagent that immediately stabilizes RNA, thus reducing RNA degradation and minimizing gene expression changes following phlebotomy. The tubes were then inverted 20 times, then remained undisturbed for 2 h at room temperature (about 19° C. to about 22° C.), and then stored at -70° C. until processed. Total RNA was isolated using the Paxgene® blood RNA kit (PreAnalytiX, Germany) according to the manufacturers instructions. The RNA isolated is from all cells in whole blood. […] Sample labeling, hybridization to chips, and image scanning were performed using standard Affymetrix protocols. For each whole blood sample from control individuals and individuals with DMD, total RNA was labeled using the One-Cycle Target Labeling protocol and hybridized to the arrays. […] Double-stranded cDNA synthesis, biotin-labeled cRNA synthesis, and cRNA fragmentation were performed according to the Affymetrix GeneChip Eukaryotic Expression Analysis protocol. […] After hybridization, the array was washed and stained. […] After scanning the array, the raw probe level values for each probe were saved in Affymetrix.cel files. […] Statistical analyses, including t-test analyses, unsupervised hierarchical clustering, and principal component analyses were conducted using Genespring 7.2 software ([…]® 7, Silicon Genetics, Redwood City Calif.). […] Corrections for multiple comparisons used a Benjamini-Hochberg False Discovery Rate (FDR) of 0.05, disclosed in Tang et al., J Cereb Blood Flow Metab 26 (2006) 1089, which is expressly incorporated by reference herein in its entirety. […] Individuals with DMD were evaluated and had been diagnosed by a single board-certified pediatric neurologist. The diagnosis of DMD was based in part upon clinical history, examination findings, and selected muscle biopsies and was confirmed by molecular diagnostic testing. […] Sample processing and array hybridization, probe-level data analysis, and statistical analysis were identical to Example 1.

[2] = test system: mRNA expression in peripheral blood of individuals with DMD; assay: Whole-blood gene expression microarray: DMD administered deflazacort vs DMD administered prednisone; format: in vivo, human; conditions: blood
Protocol: Fifteen ml of blood was collected from each individual into 6 PAXgene® Vacutainer® tubes (PreAnalytiX, Germany) by antecubital fossa venipuncture. PAXgene® tubes contain a proprietary reagent that immediately stabilizes RNA, thus reducing RNA degradation and minimizing gene expression changes following phlebotomy. The tubes were then inverted 20 times, then remained undisturbed for 2 h at room temperature (about 19° C. to about 22° C.), and then stored at -70° C. until processed. Total RNA was isolated using the Paxgene® blood RNA kit (PreAnalytiX, Germany) according to the manufacturers instructions. The RNA isolated is from all cells in whole blood. Typical yields of total RNA isolated from about 7.5 ml of human whole blood were between 10 μg RNA and 40 μg RNA. RNA quality and purity was analyzed by spectrophotometry using the Nanodrop ND-1000, and RNA integrity was analyzed using the Agilent 2100 Bioanalyzer. […] Sample labeling, hybridization to chips, and image scanning were performed using standard Affymetrix protocols. For each whole blood sample from control individuals and individuals with DMD, total RNA was labeled using the One-Cycle Target Labeling protocol and hybridized to the arrays. […] Double-stranded cDNA synthesis, biotin-labeled cRNA synthesis, and cRNA fragmentation were performed according to the Affymetrix GeneChip Eukaryotic Expression Analysis protocol. The labeled, fragmented cRNA (15 μg) was hybridized at 45° C. overnight. After hybridization, the array was washed and stained. The arrays were scanned with an argon-ion laser at λ=570 nm, with a resolution of 3 μm/pixel (Affymetrix, Inc.). After scanning the array, the raw probe level values for each probe were saved in Affymetrix.cel files. […] Statistical analyses, including t-test analyses, unsupervised hierarchical clustering, and principal component analyses were conducted using Genespring 7.2 software ([…]® 7, Silicon Genetics, Redwood City Calif.). […] Corrections for multiple comparisons used a Benjamini-Hochberg False Discovery Rate (FDR) of 0.05, disclosed in Tang et al., J Cereb Blood Flow Metab 26 (2006) 1089, which is expressly incorporated by reference herein in its entirety. […] Sample processing and array hybridization, probe-level data analysis, and statistical analysis were identical to Example 1.

[3] = DMD administered deflazacort or prednisone vs not administered

| Molecule | muscle function and strength (individuals with DMD) | expression of KFL10 (mdx mouse; six weeks of prednisone administration in the mdx mouse) | expression levels of FKBP5 [1, 3] | expression levels of genes in the chondroitin sulfate biosynthesis pathway [1, 3] | expression levels of haptoglobin and CD163 nucleic acids [1, 3] | expression levels of lactotransferrin and lipocalin [1, 3] | expression of KFL10 ([1]; individuals administered prednisone, deflazacort, or both vs DMD not administered any agent) | expression of interleukin 1 beta, interleukin 1 receptor antagonist, and interleukin 6 receptor ([2]; individuals with DMD administered prednisone) | expression of genes related to lipid metabolism ([2]; prednisone compared to deflazacort) | function and histology (mdx mouse; mdx mouse) |
| --- | --- | --- | --- | --- | --- | --- | --- | --- | --- | --- |
| Cn1cnc([N+](=O)[O-])c1Sc1ncnc2nc[nH]c12 [azathioprine] | no improvement |  |  |  |  |  |  |  |  |  |
| C[C@]12C=CC(=O)C=C1CC[C@@H]1[C@@H]2C(=O)C[C@@]2(C)[C@H]1CC[C@]2(O)C(=O)CO [prednisone] | improved muscle function and strength | up-regulated | up-regulated | up-regulated | up-regulated | increased expression levels | up-regulated | up-regulated | up-regulated |  |
| cyclosporin A |  |  |  |  |  |  |  |  |  | improves function and histology |

— patent US20110217715A1, “GENE EXPRESSION IN DUCHENNE MUSCULAR DYSTROPHY” (CHILDREN'S HOSPITAL MEDICAL CENTER, priority 2008, published 2011)
